Where “and” joins values, the source holds several entries; their conditions need not be identical. Equal values may be shown once. Calls of active or inactive are those of the source.
Key:
Vero [1] = test: West Nile virus CPE inhibition, SAR follow-up, cell-based, synthesized analogs (AID 2238); assay type: functional; settings: Chlorocebus sabaeus
Vero [2] = test: cytotoxicity of synthesized analogs in Vero 76, SAR follow-up, cytotoxicity control for West Nile virus antiviral project, Vero 76 cells (AID 2414); assay type: functional, Chlorocebus sabaeus
[3] = A Cell Based Assay for the Identification of Probe candidate Compounds with Anti- Venezuelan Equine Encephalitis virus. [Related pubchem assays: 2409, 2419, 1621, 2238, 2405, 2024, 2065, 2402, 2414, 1635, 1650, 2244 ]; assay type: functional
Vero [4] = test: cytotoxicity of synthesized analogs in Vero cells, SAR follow-up, cytotoxicity control for West Nile virus antiviral project, cell-based, set II (AID 2402); assay type: functional, Chlorocebus sabaeus
Vero [5] = test: Vero E6 cell cytotoxicity, SAR follow-up, cytotoxicity control for West Nile virus antiviral project, synthesized analogs (AID 2244); assay type: functional; settings: Chlorocebus sabaeus
Vero [6] = test: West Nile virus cytopathic effect inhibition, cell-based (AID 2419); assay type: functional; settings: Chlorocebus sabaeus
Vero [7] = test: West Nile virus antiviral activity, cell-based, CPE readout (AID 1621); assay type: functional; settings: Chlorocebus sabaeus
Prothrombin = Prothrombin (Bos taurus, UniProt P00735); test: thrombin inhibition, dose response, biochemical, fluorescence polarization, uHTS hits (AID 602369); assay type: functional
[8] = target: Dual specificity protein phosphatase 3 (Homo sapiens, UniProt P51452); test: Dose Response Confirmation of compounds that inhibit VHR1 in Fluorescent Assay. [Related pubchem assays (depositor defined):AID1661, AID1878]; assay type: functional
Dual specificity protein phosphatase 3, sequence (P51452 whole entry): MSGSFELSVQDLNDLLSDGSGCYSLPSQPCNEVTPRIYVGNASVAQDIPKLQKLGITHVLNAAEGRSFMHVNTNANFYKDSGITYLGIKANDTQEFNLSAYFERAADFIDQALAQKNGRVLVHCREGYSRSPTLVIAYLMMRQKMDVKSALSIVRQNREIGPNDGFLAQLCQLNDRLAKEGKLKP

[9] = target: 26S proteasome non-ATPase regulatory subunit 14 (Homo sapiens, UniProt O00487); test: inhibition of proteasome subunit RPN11 – biochemical, fluorescence polarization, uHTS hits, confirmation (AID 602368); assay type: functional
26S proteasome non-ATPase regulatory subunit 14, sequence (O00487 whole entry): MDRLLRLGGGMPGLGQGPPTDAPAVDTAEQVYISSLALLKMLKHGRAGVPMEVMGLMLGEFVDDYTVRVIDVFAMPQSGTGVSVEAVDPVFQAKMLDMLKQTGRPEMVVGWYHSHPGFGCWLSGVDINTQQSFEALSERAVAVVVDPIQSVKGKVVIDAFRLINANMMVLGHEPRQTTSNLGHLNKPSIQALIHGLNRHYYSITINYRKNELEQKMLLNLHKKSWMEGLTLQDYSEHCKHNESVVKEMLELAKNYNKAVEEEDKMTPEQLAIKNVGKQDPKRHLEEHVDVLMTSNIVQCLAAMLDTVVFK

[10] = target: T1, Tyrosine-protein phosphatase non-receptor type 7 (Homo sapiens, UniProt P35236); test: Dose Response confirmation of compounds that inhibit HePTP. [Related pubchem assays (depositor defined):AID1059, AID1661, AID2085]; assay type: functional
T1 sequence (P35236 whole entry): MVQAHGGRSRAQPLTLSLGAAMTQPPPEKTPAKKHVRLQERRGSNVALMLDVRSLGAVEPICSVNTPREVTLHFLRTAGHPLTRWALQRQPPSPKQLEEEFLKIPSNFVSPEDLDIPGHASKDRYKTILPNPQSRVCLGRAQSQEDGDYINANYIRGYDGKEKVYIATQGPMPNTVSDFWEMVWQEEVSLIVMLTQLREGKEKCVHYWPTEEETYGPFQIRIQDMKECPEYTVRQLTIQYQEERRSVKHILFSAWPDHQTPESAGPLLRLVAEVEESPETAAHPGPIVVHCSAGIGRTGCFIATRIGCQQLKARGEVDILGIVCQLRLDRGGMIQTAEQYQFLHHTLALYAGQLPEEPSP

[11] = target: 72 kDa type IV collagenase (Homo sapiens, UniProt P08253); test: Dose Response validation of uHTS RPN11 inhibitor hits using a MMP-2 Fluorescence assay.; assay type: functional
72 kDa type IV collagenase, sequence (P08253 whole entry): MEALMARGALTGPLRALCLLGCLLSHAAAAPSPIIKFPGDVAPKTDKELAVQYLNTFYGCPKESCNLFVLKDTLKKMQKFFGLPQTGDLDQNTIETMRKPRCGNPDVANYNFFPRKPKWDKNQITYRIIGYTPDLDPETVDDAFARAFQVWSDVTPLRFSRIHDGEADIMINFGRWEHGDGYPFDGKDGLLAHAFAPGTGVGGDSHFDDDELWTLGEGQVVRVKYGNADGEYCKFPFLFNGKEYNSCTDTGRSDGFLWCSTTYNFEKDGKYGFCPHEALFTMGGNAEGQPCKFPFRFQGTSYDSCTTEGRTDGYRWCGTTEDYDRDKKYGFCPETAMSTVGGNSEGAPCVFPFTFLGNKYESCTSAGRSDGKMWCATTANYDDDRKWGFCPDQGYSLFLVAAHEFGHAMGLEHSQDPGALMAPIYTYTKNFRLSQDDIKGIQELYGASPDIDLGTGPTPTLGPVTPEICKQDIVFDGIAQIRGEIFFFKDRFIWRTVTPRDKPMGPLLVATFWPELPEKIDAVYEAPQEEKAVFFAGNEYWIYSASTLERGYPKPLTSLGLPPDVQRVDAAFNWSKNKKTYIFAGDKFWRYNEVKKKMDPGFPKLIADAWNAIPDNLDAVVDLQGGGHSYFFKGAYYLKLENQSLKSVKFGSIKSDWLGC

[12] = target: T2, Polyadenylate-binding protein 1 (Homo sapiens, UniProt P11940); test: PABP poly(A) RNA binding inhibitors, primary screen, biochemical, fluorescence polarization, uHTS (AID 2014)
T2 sequence (P11940 whole entry): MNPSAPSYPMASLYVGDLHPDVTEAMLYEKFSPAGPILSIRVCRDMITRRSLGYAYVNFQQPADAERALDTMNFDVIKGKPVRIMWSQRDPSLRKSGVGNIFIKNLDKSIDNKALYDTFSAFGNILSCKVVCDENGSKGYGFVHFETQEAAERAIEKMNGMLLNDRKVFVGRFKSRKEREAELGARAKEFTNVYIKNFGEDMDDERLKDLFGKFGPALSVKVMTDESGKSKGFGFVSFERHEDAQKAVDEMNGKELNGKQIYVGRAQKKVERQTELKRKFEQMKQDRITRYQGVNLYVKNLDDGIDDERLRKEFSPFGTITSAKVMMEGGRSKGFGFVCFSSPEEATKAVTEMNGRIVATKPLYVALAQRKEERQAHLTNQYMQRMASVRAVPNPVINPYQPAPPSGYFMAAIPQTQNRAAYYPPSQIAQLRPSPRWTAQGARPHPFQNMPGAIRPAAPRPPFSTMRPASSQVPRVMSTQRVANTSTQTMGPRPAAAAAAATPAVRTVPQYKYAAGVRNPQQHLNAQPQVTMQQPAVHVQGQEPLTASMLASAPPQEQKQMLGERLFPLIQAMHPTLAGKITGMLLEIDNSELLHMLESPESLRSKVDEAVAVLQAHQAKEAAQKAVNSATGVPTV

[13] = target: T3, Eukaryotic translation initiation factor 4H (Homo sapiens, UniProt Q15056); test: eIF4H inhibition in translation initiation, SAR follow-up (AID 435011); assay type: functional
[14] = target: T2, Polyadenylate-binding protein 1; test: PABP inhibition in translation initiation, SAR follow-up (AID 435018); assay type: functional
[15] = target: T3, Eukaryotic translation initiation factor 4H; test: human eIF4H binding inhibitors, primary screen, translation initiation inhibitor project, biochemical, uHTS, fluorescence polarization (AID 2012)
[16] = target: T4, E3 ubiquitin-protein ligase XIAP (Homo sapiens, UniProt P98170); test: XIAP antagonists, biochemical, IAP family, fluorescence polarization (AID 1018); assay type: functional
T4 sequence (P98170 whole entry): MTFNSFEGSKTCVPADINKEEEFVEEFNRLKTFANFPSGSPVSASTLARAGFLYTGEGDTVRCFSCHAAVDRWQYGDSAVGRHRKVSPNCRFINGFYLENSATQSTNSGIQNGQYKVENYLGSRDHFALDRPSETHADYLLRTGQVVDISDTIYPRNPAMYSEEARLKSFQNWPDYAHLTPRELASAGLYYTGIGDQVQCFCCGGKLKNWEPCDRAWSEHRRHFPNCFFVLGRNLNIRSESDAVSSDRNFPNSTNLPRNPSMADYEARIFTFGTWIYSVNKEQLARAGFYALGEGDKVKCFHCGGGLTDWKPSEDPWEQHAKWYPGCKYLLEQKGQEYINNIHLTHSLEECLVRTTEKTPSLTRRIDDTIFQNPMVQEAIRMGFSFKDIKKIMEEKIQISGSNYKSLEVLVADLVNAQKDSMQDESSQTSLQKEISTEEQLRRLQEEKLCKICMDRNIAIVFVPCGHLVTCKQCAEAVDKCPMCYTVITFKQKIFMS

[17] = target: T4, E3 ubiquitin-protein ligase XIAP; test: Counter Screen using XIAP-Bir3 for Chemical Antagonists of Bir1/2 domains of IAP-family anti-apoptotic proteins. [Related pubchem assays (depositor defined):AID1018, AID1449, AID1514, AID1638, AID1749, AID1750, AID488957, AID488963]

Brc1ccc2c(c1)CN1CCCC1=N2
IC50 (Vero [1]): 38.9 µM (active) | CC50 (Vero [2]): 124 µM (active) | CC50 (Vero [2]; Chlorocebus sabaeus, Vero): > 66.6 µM (active) | IC50 [3]: > 66.6 µM (active) and 60.3 µM (active) | CC50 (Vero [4]): 197 µM (active) | CC50 (Vero [4]; Chlorocebus sabaeus, Vero): > 100 µM (active) | CC50 (Vero [5]): > 40 µM (active) | IC50 (Vero [6]): 16.8 µM (active) | IC50 (Vero [7]): 19.7 µM (active)

Cc1ccc(-c2nnn3c2nc(NCCc2ccc(S(N)(=O)=O)cc2)c2ccccc23)cc1
IC50 (Prothrombin): 77.4 µM (active) | IC50 [8]: 0.783 µM (active) | IC50 [9]: 17.7 µM (active) | IC50 [10]: 0.819 µM (active) | IC50 [11]: > 100 µM (inactive)

COc1ccc(OC)c(NC(=O)CSc2ccc(-c3ccco3)nn2)c1
IC50 [12]: 93.4 µM (active) | IC50 [13]: 48.7 µM (active) | IC50 [14]: > 100 µM (inactive) | IC50 [15]: 16.1 µM (active)

CCOCCCNC(=O)c1cn(CC(C)C)c(=O)c2cc(OC)c(OC)cc12
IC50 [16]: > 100 µM (not active) | IC50 [17]: > 100 µM (inactive)

Source: ChEMBL document CHEMBL1201862, “PubChem BioAssay data set” (2004)
